Results as given in PubChem BioAssay AID1963447 (Molecular Pharmacology Branch, DTP, NCI, 2024).

System: 885512-296-R-J2-PDC complex spheroid growth, % test/control
Assay: Anticancer human tumor 885512-296-R-J2-PDC patient-derived breast carcinoma cell line growth inhibition [Asc]
Conditions: for IC50: curve of first compound; for viability, T/C: stronger effect = lower value
Outline: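 Complex solid-tumor spheroids incorporating human endothelial and mesenchymal stem cells received single agents or combinations over half-log dilution ranges anchored to clinical Cmax.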
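Note: spheroids exposed to compounds for seven days.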
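Throughout, for viability, T/C: 100% = DMSO vehicle control wells.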

C=C(F)C(=O)N1CCN(c2nc(OCC3CCCN3C)nc3c2CCN(c2cccc4cccc(Cl)c24)C3)CC1CC#N (stereo not given) + CCN1C(C(=O)NC23CCC(C(=O)O)(CC2)CC3)C(c2cccc(Cl)c2F)C2(C(=O)Nc3cc(Cl)ccc32)C12CCCCC2
IC50 (second compound 0.03 µM): 2.29 µM | IC50 (second compound 0.0949 µM): 2.46 µM | IC50 (second compound 0.3 µM): 2.24 µM | IC50 (second compound 0.949 µM): 1.9 µM | IC50 (second compound 3 µM): 1.05 µM | viability, T/C (second compound 0.03 µM, first compound 0.0316 µM): 96.3% | viability, T/C (second compound 0.03 µM, first compound 0.1 µM): 110% | viability, T/C (second compound 0.03 µM, first compound 0.316 µM): 101% | viability, T/C (second compound 0.03 µM, first compound 1 µM): 110% | viability, T/C (second compound 0.03 µM, first compound 3.16 µM): 28.6% | viability, T/C (second compound 0.03 µM, first compound 10 µM): 0.11% | viability, T/C (second compound 0.0949 µM, first compound 0.0316 µM): 118% | viability, T/C (second compound 0.0949 µM, first compound 0.1 µM): 117% | viability, T/C (second compound 0.0949 µM, first compound 0.316 µM): 120% | viability, T/C (second compound 0.0949 µM, first compound 1 µM): 107% | viability, T/C (second compound 0.0949 µM, first compound 3.16 µM): 34% | viability, T/C (second compound 0.0949 µM, first compound 10 µM): 0.38% | viability, T/C (second compound 0.3 µM, first compound 0.0316 µM): 94% | viability, T/C (second compound 0.3 µM, first compound 0.1 µM): 95.1% | viability, T/C (second compound 0.3 µM, first compound 0.316 µM): 98.2% | viability, T/C (second compound 0.3 µM, first compound 1 µM): 102% | viability, T/C (second compound 0.3 µM, first compound 3.16 µM): 29.5% | viability, T/C (second compound 0.3 µM, first compound 10 µM): 0.1% | viability, T/C (second compound 0.949 µM, first compound 0.0316 µM): 69% | viability, T/C (second compound 0.949 µM, first compound 0.1 µM): 72% | viability, T/C (second compound 0.949 µM, first compound 0.316 µM): 76.9% | viability, T/C (second compound 0.949 µM, first compound 1 µM): 90.1% | viability, T/C (second compound 0.949 µM, first compound 3.16 µM): 28.6% | viability, T/C (second compound 0.949 µM, first compound 10 µM): 0.1% | viability, T/C (second compound 3 µM, first compound 0.0316 µM): 43% | viability, T/C (second compound 3 µM, first compound 0.1 µM): 43.3% | viability, T/C (second compound 3 µM, first compound 0.316 µM): 51.5% | viability, T/C (second compound 3 µM, first compound 1 µM): 67.5% | viability, T/C (second compound 3 µM, first compound 3.16 µM): 19.8% | viability, T/C (second compound 3 µM, first compound 10 µM): 0.15%

C#Cc1c(F)ccc2cc(O)cc(-c3ncc4c(N5CC6CCC(C5)N6)nc(OCC56CCCN5CC(F)C6)nc4c3F)c12 (stereo not given) + Cc1c(S(C)(=O)=O)c(-c2cc(F)cc(N3CCN(c4ccc(NS(=O)(=O)c5ccc(NC(CCN6CCC(C(=O)OCCCP(=O)(O)O)CC6)CSc6ccccc6)c(S(=O)(=O)C(F)(F)F)c5)cc4)CC3)c2)c(-c2ccc(Cl)cc2)n1C(C)C
IC50 (second compound 0.1 µM): > 10 µM | IC50 (second compound 0.316 µM): > 10 µM | IC50 (second compound 1 µM): > 10 µM | IC50 (second compound 3.16 µM): > 10 µM | IC50 (second compound 10 µM): > 10 µM | viability, T/C (second compound 0.1 µM, first compound 0.0316 µM): 96.9% | viability, T/C (second compound 0.1 µM, first compound 0.1 µM): 78.9% | viability, T/C (second compound 0.1 µM, first compound 0.316 µM): 85.1% | viability, T/C (second compound 0.1 µM, first compound 1 µM): 77.4% | viability, T/C (second compound 0.1 µM, first compound 3.16 µM): 74.1% | viability, T/C (second compound 0.1 µM, first compound 10 µM): 70.9% | viability, T/C (second compound 0.316 µM, first compound 0.0316 µM): 96.8% | viability, T/C (second compound 0.316 µM, first compound 0.1 µM): 105% | viability, T/C (second compound 0.316 µM, first compound 0.316 µM): 90.9% | viability, T/C (second compound 0.316 µM, first compound 1 µM): 72.4% | viability, T/C (second compound 0.316 µM, first compound 3.16 µM): 95.4% | viability, T/C (second compound 0.316 µM, first compound 10 µM): 71% | viability, T/C (second compound 1 µM, first compound 0.0316 µM): 88.3% | viability, T/C (second compound 1 µM, first compound 0.1 µM): 82.9% | viability, T/C (second compound 1 µM, first compound 0.316 µM): 93% | viability, T/C (second compound 1 µM, first compound 1 µM): 66.6% | viability, T/C (second compound 1 µM, first compound 3.16 µM): 86% | viability, T/C (second compound 1 µM, first compound 10 µM): 66.9% | viability, T/C (second compound 3.16 µM, first compound 0.0316 µM): 88.3% | viability, T/C (second compound 3.16 µM, first compound 0.1 µM): 112% | viability, T/C (second compound 3.16 µM, first compound 0.316 µM): 82.7% | viability, T/C (second compound 3.16 µM, first compound 1 µM): 76.5% | viability, T/C (second compound 3.16 µM, first compound 3.16 µM): 79.8% | viability, T/C (second compound 3.16 µM, first compound 10 µM): 76.4% | viability, T/C (second compound 10 µM, first compound 0.0316 µM): 115% | viability, T/C (second compound 10 µM, first compound 0.1 µM): 112% | viability, T/C (second compound 10 µM, first compound 0.316 µM): 101% | viability, T/C (second compound 10 µM, first compound 1 µM): 117% | viability, T/C (second compound 10 µM, first compound 3.16 µM): 103% | viability, T/C (second compound 10 µM, first compound 10 µM): 51.4%
